This passage reports IC50 results from patent publication US20090264433A1, “Compounds, Compositions and Methods Comprising Triazine Derivatives” (Institute for OneWorld Health, priority 2008, published 2009).

The target of the experiment is T1, CFTR channel in human colonic T84 cells (Homo sapiens, UniProt P13569).
T1 construct: results in the phosphorylation and opening of CFTR anion channels; host or cells: human colonic T84 cells
T1 sequence (P13569 whole entry): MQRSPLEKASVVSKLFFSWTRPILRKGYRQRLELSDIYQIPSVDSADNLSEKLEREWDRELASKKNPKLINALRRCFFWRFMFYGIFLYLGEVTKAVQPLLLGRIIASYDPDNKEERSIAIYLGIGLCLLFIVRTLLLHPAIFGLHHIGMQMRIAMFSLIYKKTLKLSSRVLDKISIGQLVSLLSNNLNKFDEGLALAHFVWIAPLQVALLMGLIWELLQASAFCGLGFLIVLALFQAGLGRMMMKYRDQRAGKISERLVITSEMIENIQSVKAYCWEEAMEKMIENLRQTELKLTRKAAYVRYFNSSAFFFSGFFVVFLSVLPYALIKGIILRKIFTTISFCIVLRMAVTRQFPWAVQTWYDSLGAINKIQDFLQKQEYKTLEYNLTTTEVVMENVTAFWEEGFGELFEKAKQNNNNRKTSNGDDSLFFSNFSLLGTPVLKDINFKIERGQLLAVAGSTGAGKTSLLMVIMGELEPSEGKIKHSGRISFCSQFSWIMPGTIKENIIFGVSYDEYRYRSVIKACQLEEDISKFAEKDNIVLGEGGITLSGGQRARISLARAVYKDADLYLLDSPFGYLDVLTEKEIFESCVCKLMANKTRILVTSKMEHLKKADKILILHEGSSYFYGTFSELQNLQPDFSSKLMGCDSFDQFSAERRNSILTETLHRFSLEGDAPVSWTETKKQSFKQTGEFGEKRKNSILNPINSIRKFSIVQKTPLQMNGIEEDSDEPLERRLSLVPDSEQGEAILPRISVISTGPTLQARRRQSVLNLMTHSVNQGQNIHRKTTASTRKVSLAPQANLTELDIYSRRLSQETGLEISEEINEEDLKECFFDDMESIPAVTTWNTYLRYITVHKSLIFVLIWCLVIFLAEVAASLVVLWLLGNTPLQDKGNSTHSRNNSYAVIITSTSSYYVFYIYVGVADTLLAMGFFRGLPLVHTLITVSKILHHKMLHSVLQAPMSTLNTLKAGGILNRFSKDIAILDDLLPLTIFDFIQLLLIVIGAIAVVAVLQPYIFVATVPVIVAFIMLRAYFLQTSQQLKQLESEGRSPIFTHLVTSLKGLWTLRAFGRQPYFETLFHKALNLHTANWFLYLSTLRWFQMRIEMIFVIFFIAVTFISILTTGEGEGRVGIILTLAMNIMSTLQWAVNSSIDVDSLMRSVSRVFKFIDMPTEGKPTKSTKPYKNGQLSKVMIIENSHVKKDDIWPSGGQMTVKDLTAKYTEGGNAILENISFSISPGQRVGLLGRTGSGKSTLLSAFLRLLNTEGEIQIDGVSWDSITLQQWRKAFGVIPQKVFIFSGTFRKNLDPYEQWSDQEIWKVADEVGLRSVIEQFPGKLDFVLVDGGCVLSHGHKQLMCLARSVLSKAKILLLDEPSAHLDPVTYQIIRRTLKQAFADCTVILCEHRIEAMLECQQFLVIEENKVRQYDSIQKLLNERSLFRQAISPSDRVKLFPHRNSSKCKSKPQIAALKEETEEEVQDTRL
Nature of the experiment: T84 assay (FLIPR membrane potential dye, forskolin/IBMX-stimulated CFTR). In kind it is cell-based. To be noted: average of at least 2 runs unless annotated n = 1. The method in brief: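 T84 cells (25,000/well, grown overnight) were washed in HBSS with 10 mM Hepes, then loaded with FLIPR Red membrane potential dye for 45 min with or without compound. CFTR was stimulated with 10 μM forskolin plus 100 μM IBMX after a 10 s baseline. Depolarization was tracked as a fluorescence increase, read every second for 150 s.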
`Oc1c(Br)cc(-c2cnc(OCc3ccc(Cl)cc3)nn2)cc1Br` [Compound 20, 2,6-dibromo-4-(3-(4-chlorobenzyloxy)-1,2,4-triazin-6-yl)phenol]: the IC50 came out at 0.85 µM. Under `O=C(c1ccco1)N1CCN(Cc2ccc(COc3ncc(-c4cc(Cl)c(O)c(Cl)c4)nn3)cc2)CC1` [Compound 217, (4-(4-((6-(3,5-dichloro-4-hydroxyphenyl)-1,2,4-triazin-3-yloxy)methyl)benzyl)piperazin-1-yl)(furan-2-yl)methanone] stands 4.47 µM; under `CN(Cc1ccc(COc2ncc(-c3cc(Cl)c(O)c(Cl)c3)nn2)cc1)Cc1cccc2ccccc12` [Compound 181, 2,6-dichloro-4-(3-(4-((methyl(naphthalen-1-ylmethyl)amino)methyl)benzyl-oxy)-1,2,4-triazin-6-yl)phenol], 9.15 µM. In turn, `Oc1c(Br)cc(-c2cnc(OCCc3ccccc3)nn2)cc1Br` [Compound 96, 2,6-dibromo-4-(3-phenethoxy-1,2,4-triazin-6-yl)phenol] yielded an IC50 of 0.47 µM.

Regarding `CN(Cc1ccc(COc2ncc(-c3cc(Cl)c(O)c(Cl)c3)nn2)cc1)Cc1cccc(Cl)c1Cl` [Compound 183, 2,6-dichloro-4-(3-(4-(((2,3-dichlorobenzyl)(methyl)amino)methyl)benzyloxy)-1,2,4-triazin-6-yl)phenol], 14.6 µM corresponded to half-maximal inhibition (IC50). The value for `Oc1c(Cl)cc(-c2cnc(NCc3cccc(Cl)c3Cl)nn2)cc1Cl` [Compound 121, 2,6-Dichloro-4-(3-(2,3-dichlorobenzylamino)-1,2,4-triazin-6-yl)phenol] was 13.1 µM.

The compound `CN(Cc1ccc(COc2ncc(-c3cc(Cl)c(O)c(Cl)c3)nn2)cc1)Cc1ccc(-c2ncccn2)cc1` [Compound 202, 2,6-dichloro-4-(3-(4-((methyl(4-(pyrimidin-2-yl)benzyl)amino)methyl)benzyl-oxy)-1,2,4-triazin-6-yl)phenol] came in with an IC50 of 1.87 µM. `Oc1c(Br)cc(-c2cnc(OCCc3ccc(Cl)cc3Cl)nn2)cc1Br` [Compound 10, 2,6-dibromo-4-(3-(2,4-dichlorophenethoxy)-1,2,4-triazin-6-yl)phenol] gave an IC50 of 0.66 µM. The value for `O=C(O)c1ccccc1N1CCN(Cc2ccc(COc3ncc(-c4cc(Cl)c(O)c(Cl)c4)nn3)cc2)CC1` [Compound 144, 2-(4-(4-((6-(3,5-dichloro-4-hydroxyphenyl)-1,2,4-triazin-3-yloxy)methyl)benzyl)piperazin-1-yl)benzic acid] was 28.6 µM; that for `Oc1c(Br)cc(-c2cnc(OCc3c(Cl)cc(Cl)cc3Cl)nn2)cc1Br` [Compound 22, 2,6-dibromo-4-(3-(2,4,6-trichlorobenzyloxy)-1,2,4-triazin-6-yl)phenol] was 2.33 µM. Under `CN(C)CCCOc1cccc(CN(C)Cc2ccc(COc3ncc(-c4cc(Cl)c(O)c(Cl)c4)nn3)cc2)c1` [Compound 204, 2,6-dichloro-4-(3-(4-(((3-(3-(dimethylamino)propoxy)benzyl)(methyl)amino)methyl)benzyl-oxy)-1,2,4-triazin-6-yl)phenol] stands 2.43 µM; under `Oc1c(Cl)cc(-c2cnc(OCc3ccc(CNCc4ccc(F)cc4)cc3)nn2)cc1Cl` [Compound 164, 2,6-dichloro-4-(3-(4-((4-fluorobenzylamino)methyl)benzyloxy)-1,2,4-triazin-6-yl)phenol], 28.5 µM; under `CC(C)(c1ccccc1)c1ccc(OCc2ncc(-c3cc(Br)c(O)c(Br)c3)nn2)cc1` [Compound 35, 2,6-dibromo-4-(3-((4-(2-phenylpropan-2-yl)phenoxy)methyl)-1,2,4-triazin-6-yl)phenol], 7.31 µM.

On to `O=C(C1CC1)N1CCN(Cc2ccc(COc3ncc(-c4cc(Cl)c(O)c(Cl)c4)nn3)cc2)CC1` [Compound 219, cyclopropyl(4-(4-((6-(3,5-dichloro-4-hydroxyphenyl)-1,2,4-triazin-3-yloxy)methyl)benzyl)piperazin1-yl)methanone], for which half-maximal inhibition (IC50) was put at 12.4 µM. In turn, `Oc1c(Br)cc(-c2cnc(OCCc3ccc(Cl)c(Cl)c3)nn2)cc1Br` [Compound 99, 2,6-dibromo-4-(3-(3,4-dichlorophenethoxy)-1,2,4-triazin-6-yl)phenol] registered an IC50 of 0.26 µM.

With `Oc1c(Cl)cc(-c2cnc(OCCc3ccc(F)cc3)nn2)cc1Cl` [Compound 179, 2,6-dichloro-4-(3-(4-fluorophenethoxy)-1,2,4-triazin-6-yl)phenol], the IC50 is 2.33 µM. Under `Cc1cc(Br)c(OCc2ncc(-c3cc(Br)c(O)c(Br)c3)nn2)c2c1CCC2` [Compound 46, 2,6-dibromo-4-(3-((5-bromo-7-methyl-2,3-dihydro-1H-inden-4-yloxy)methyl)-1,2,4-triazin-6-yl)phenol] stands 14.3 µM; under `CN(Cc1ccc(COc2ncc(-c3cc(Cl)c(O)c(Cl)c3)nn2)cc1)C(c1ccccc1)c1ccccc1` [Compound 171, 4-(3-(4-((benzhydryl(methyl)amino)methyl)benzyloxy)-1,2,4-triazin-6-yl)-2,6-dichlorophenol], 14.4 µM; under `Oc1c(Br)cc(-c2cnc(OCc3cccc(Cl)c3Cl)nn2)cc1Br` [Compound 23, 2,6-dibromo-4-(3-(2,3-dichlorobenzyloxy)-1,2,4-triazin-6-yl)phenol], 2.7 µM. In turn, `Oc1c(Br)cc(-c2cnc(OCc3ccccc3Br)nn2)cc1Br` [Compound 6, 2,6-dibromo-4-(3-(2-bromobenzyloxy)-1,2,4-triazin-6-yl)phenol] registered an IC50 of 0.7 µM.

Compound `CC(Oc1ncc(-c2cc(Br)c(O)c(Br)c2)nn1)c1cccc(Cl)c1` (stereo not shown) [Compound 12, 2,6-dibromo-4-(3-(1-(3-chlorophenyl)ethoxy)-1,2,4-triazin-6-yl)phenol] displayed a half-maximal inhibitory concentration (IC50) of 0.84 µM.

Regarding `Oc1c(Cl)cc(-c2cnc(OCc3ccc(F)cc3F)nn2)cc1Cl` [Compound 148, 2,6-dichloro-4-(3-(2,4-difluorobenzyloxy)-1,2,4-triazin-6-yl)phenol], half-maximal inhibition (IC50) was put at 3.97 µM. Turning to `CC(C)(C)OC(=O)N1CCN(Cc2cc(Cl)ccc2OCc2ncc(-c3cc(Br)c(O)c(Br)c3)nn2)CC1` [Compound 92, tert-butyl 4-(5-chloro-2-((6-(3,5-dibromo-4-hydroxyphenyl)-1,2,4-triazin-3-yl)methoxy)benzyl)piperazine-1-carboxylate], the midpoint of inhibition, the IC50, lay at 4.56 µM. The compound `Oc1c(Cl)cc(-c2cnc(OCc3ccccc3F)nn2)cc1Cl` [Compound 127, 2,6-dichloro-4-(3-(2-fluorobenzyloxy)-1,2,4-triazin-6-yl)phenol] yielded an IC50 of 5.46 µM. The value for `COc1ccc(CCOc2ncc(-c3cc(Br)c(O)c(Br)c3)nn2)cc1` [Compound 97, 2,6-dibromo-4-(3-(4-methoxyphenethoxy)-1,2,4-triazin-6-yl)phenol] was 0.45 µM. In turn, `Oc1c(Br)cc(-c2cnc(COc3ccc(C4SCCS4)cc3)nn2)cc1Br` [Compound 51, 4-(3-((4-(1,3-dithiolan-2-yl)phenoxy)methyl)-1,2,4-triazin-6-yl)-2,6-dibromophenol] yielded a concentration for half-maximal inhibition (IC50) of 18.8 µM.

With `Oc1c(Cl)cc(-c2cnc(OCc3ccc(CN(Cc4ccccc4)Cc4ccccc4)cc3)nn2)cc1Cl` [Compound 167, 2,6-dichloro-4-(3-(4-((dibenzylamino)methyl)benzyl-oxy)-1,2,4-triazin-6-yl)phenol], the midpoint of inhibition, the IC50, lay at 6.61 µM. Under `Cc1cc(OCc2ncc(-c3cc(Br)c(O)c(Br)c3)nn2)cc(C)c1Cl` [Compound 47, 2,6-dibromo-4-(3-((4-chloro-3,5-dimethylphenoxy)methyl)-1,2,4-triazin-6-yl)phenol] stands 14.7 µM.

The compound `Oc1c(Cl)cc(-c2cnc(OCCNCc3ccccc3)nn2)cc1Cl` [Compound 124, 4-(3-(2-(benzylamino)ethoxy)-1,2,4-triazin-6-yl)-2,6-dichlorophenol] showed a 50% inhibitory concentration (IC50) of 1.98 µM. `Oc1c(Br)cc(-c2cnc(COc3ccc(Cl)cc3Cl)nn2)cc1Br` [Compound 42, 2,6-dibromo-4-(3-((2,4-dichlorophenoxy)methyl)-1,2,4-triazin-6-yl)phenol]: half-maximal inhibition (IC50) was put at 11 µM. Under `CN(Cc1ccc(COc2ncc(-c3cc(Cl)c(O)c(Cl)c3)nn2)cc1)Cc1cccc(Oc2ccccn2)c1` [Compound 186, 2,6-dichloro-4-(3-(4-((methyl(3-(pyridin-2-yloxy)benzyl)amino)methyl)benzyloxy)-1,2,4-triazin-6-yl)phenol] stands 6.97 µM; under `Oc1c(Cl)cc(-c2cnc(OCc3ccc(CNCc4cccc5ccccc45)cc3)nn2)cc1Cl` [Compound 149, 2,6-Dichloro-4-(3-(4-((naphthalen-1-ylmethylamino)methyl)benzyloxy)-1,2,4-triazin-6-yl)phenol], 3.9 µM.

As for `Oc1c(Cl)cc(-c2cnc(OCc3ccc(CN4CCc5ccccc5C4)cc3)nn2)cc1Cl` [Compound 166], 3.08 µM corresponded to half-maximal inhibition (IC50).

Consider `CN(Cc1ccc(COc2ncc(-c3cc(Cl)c(O)c(Cl)c3)nn2)cc1)Cc1ccc(OCCN2CCOCC2)cc1` [Compound 214, 2,6-dichloro-4-(3-(4-((methyl(4-(2-morpholinoethoxy)benzyl)amino)methyl)benzyloxy)-1,2,4-triazin-6-yl)phenol], for which half-maximal inhibition (IC50) required 5.19 µM.

Turning to `CN(Cc1ccc(COc2ncc(-c3cc(Cl)c(O)c(Cl)c3)nn2)cc1)Cc1cccc(-c2ncccn2)c1` [Compound 205, 2,6-dichloro-4-(3-(4-((methyl(3-(pyrimidin-2-yl)benzyl)amino)methyl)benzyl-oxy)-1,2,4-triazin-6-yl)phenol], the IC50 was determined as 4.18 µM. Turning to `Oc1c(Br)cc(-c2cnc(OCc3cc(Br)cs3)nn2)cc1Br` [Compound 107, 2,6-dibromo-4-(3-((4-bromothiophen-2-yl)methoxy)-1,2,4-triazin-6-yl)phenol], the midpoint of inhibition, the IC50, lay at 0.44 µM. As to `Oc1c(Br)cc(-c2cnc(Oc3ccc(Cl)c(Cl)c3)nn2)cc1Br` [Compound 21, 2,6-dibromo-4-(3-(3,4-dichlorophenoxy)-1,2,4-triazin-6-yl)phenol], the IC50 was 2.12 µM.
